# Literature values as cited in patent US20040138299A1, “Solid pharmaceutical composition comprising 4-cyano-trifluoro-3(4-fluorophenyl-sulphonyl)-2hydroxy-methylpropiono-m toluidide and pvp” (priority 2001, published 2004).
# Details: conventional tablet doses above 300 mg
smiles,measurement,value
"CC(O)(CS(=O)(=O)c1ccc(F)cc1)C(=O)Nc1ccc(C#N)c(C(F)(F)F)c1 (stereo not drawn) [bicalutamide, 4′-cyano-α′,α′,α′-trifluoro-3-(4-fluorophenylsulphonyl)-2-hydroxy-2-methylpropiono-m-toluidide]",systemic exposure at high dose,no further significant increase in systemic exposure
